Data from PubChem BioAssay (NCI).
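Grown in 96-well plates, cells were treated for 48 hours with each compound at five concentrations. Insufficient inhibition: endpoint recorded as highest concentration tested. Here, GI50 denotes the concentration required for 50% inhibition of growth. TGI: concentration producing complete growth inhibition.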

Legend:
Test in all cases: growth of human tumour cells (NCI), 48 h
[1] = test system: LOX IMVI melanoma
[2] = test system: HCT-116 colon
[3] = test system: NCI-H460 lung
[4] = test system: MCF7 breast
[5] = test system: PC-3 prostate
[6] = test system: RPMI-8226 leukemia
[7] = test system: COLO 205 colon
[8] = test system: HOP-62 NSCLC
[9] = test system: A549 NSCLC
[10] = test system: HCC-2998 colon
[11] = test system: HT29 colon
[12] = test system: NCI-H226 lung
[13] = test system: NCI/ADR-RES ovarian
[14] = test system: K-562 leukemia
[15] = test system: ACHN renal
[16] = test system: CCRF-CEM leukemia
[17] = test system: KM12 colon
[18] = test system: HCT-15 colon
[19] = test system: SW-620 colon
[20] = test system: CAKI-1 renal
[21] = test system: MDA-MB-435
[22] = test system: SF-268 CNS
[23] = test system: 786-0 renal
[24] = test system: NCI-H23 lung
[25] = test system: SR leukemia
[26] = test system: UACC-257 melanoma
[27] = test system: UACC-62 melanoma
[28] = test system: RXF 393 renal
[29] = test system: TK-10 renal
[30] = test system: U251 CNS
[31] = test system: OVCAR-3 ovarian
[32] = test system: SK-MEL-2 melanoma
[33] = test system: BT-549 breast
[34] = test system: OVCAR-5 ovarian
[35] = test system: SK-OV-3 ovarian
[36] = test system: HL-60(TB) leukemia
[37] = test system: IGROV1 ovarian
[38] = test system: MDA-MB-231 breast
[39] = test system: T-47D breast
[40] = test system: A498 renal
[41] = test system: HOP-92 NSCLC
[42] = test system: SF-295 CNS
[43] = test system: M14 melanoma
[44] = test system: OVCAR-8 ovarian
[45] = test system: SF-539 CNS
[46] = test system: MOLT-4 leukemia
[47] = test system: SN12C renal
[48] = test system: DU-145 prostate
[49] = test system: NCI-H522 lung
[50] = test system: SNB-19 CNS
[51] = test system: MALME-3M melanoma
[52] = test system: SNB-75 CNS
[53] = test system: SK-MEL-28 melanoma
[54] = test system: SK-MEL-5 melanoma
[55] = test system: EKVX NSCLC
[56] = test system: UO-31 renal
[57] = test system: HS 578T breast
[58] = test system: OVCAR-4 ovarian

## Cc1cc(Nc2ccc(F)cc2)nc(N2CCN(c3ccnc4cc(Cl)ccc34)CC2)n1
[1]
  GI50: 2940 nM
  TGI: > 100000 nM
[2]
  GI50: 2150 nM
  TGI: > 100000 nM
[3]
  GI50: 2950 nM
  TGI: > 100000 nM
[4]
  GI50: 2690 nM
  TGI: > 100000 nM
[5]
  GI50: 1790 nM
  TGI: > 100000 nM
[6]
  GI50: 2250 nM
  TGI: > 100000 nM
[7]
  GI50: 1800 nM
  TGI: 4390 nM
[8]
  GI50: 4060 nM
  TGI: > 100000 nM
[9]
  GI50: 3750 nM
  TGI: > 100000 nM
[10]
  GI50: 4050 nM
  TGI: > 100000 nM
[11]
  GI50: 2960 nM
  TGI: > 100000 nM
[12]
  GI50: 4750 nM
  TGI: > 100000 nM
[13]
  GI50: 2880 nM
  TGI: > 100000 nM
[14]
  GI50: 2490 nM
  TGI: > 100000 nM
[15]
  GI50: 2840 nM
  TGI: > 100000 nM
[16]
  GI50: 2990 nM
  TGI: > 100000 nM
[17]
  GI50: 2780 nM
  TGI: 75000 nM
[18]
  GI50: 2270 nM
  TGI: > 100000 nM
[19]
  GI50: 3440 nM
  TGI: > 100000 nM

## Cc1ccc(C(=O)/C(=C\c2ccc([N+](=O)[O-])cc2)S(=O)Cc2ccc(F)cc2)cc1 (stereo not drawn)
[1]
  GI50: 1460 nM
  TGI: 2950 nM
[2]
  GI50: 499 nM
  TGI: 1790 nM
[20]
  GI50: 1770 nM
  TGI: 3840 nM
[21]
  GI50: 1760 nM
  TGI: 3650 nM
[3]
  GI50: 1890 nM
  TGI: 3850 nM
[22]
  GI50: 1690 nM
  TGI: 3360 nM
[23]
  GI50: 1370 nM
  TGI: 2680 nM
[24]
  GI50: 1690 nM
  TGI: 3360 nM
[25]
  GI50: 703 nM
  TGI: 12600 nM
[26]
  GI50: 1930 nM
  TGI: 3690 nM
[27]
  GI50: 1530 nM
  TGI: 2970 nM
[28]
  GI50: 1780 nM
  TGI: 3280 nM
[5]
  GI50: 1520 nM
  TGI: 3090 nM
[6]
  GI50: 1020 nM
  TGI: 4330 nM
[29]
  GI50: 1720 nM
  TGI: 3280 nM
[7]
  GI50: 1920 nM
  TGI: 3760 nM
[30]
  GI50: 1660 nM
  TGI: 3220 nM
[8]
  GI50: 2350 nM
  TGI: 6300 nM
[31]
  GI50: 1570 nM
  TGI: 2960 nM
[32]
  GI50: 2100 nM
  TGI: 5200 nM
[33]
  GI50: 1520 nM
  TGI: 2880 nM
[34]
  GI50: 1960 nM
  TGI: 3930 nM
[9]
  GI50: 2860 nM
  TGI: 8800 nM
[35]
  GI50: 10800 nM
  TGI: 23200 nM
[36]
  GI50: 1670 nM
  TGI: 5020 nM
[37]
  GI50: 1500 nM
  TGI: 3050 nM
[38]
  GI50: 1830 nM
  TGI: 3680 nM
[10]
  GI50: 1770 nM
  TGI: 3240 nM
[39]
  GI50: 1910 nM
  TGI: 5510 nM
[40]
  GI50: 2480 nM
  TGI: 6040 nM
[41]
  GI50: 1930 nM
  TGI: 3870 nM
[42]
  GI50: 1940 nM
  TGI: 5050 nM
[43]
  GI50: 1440 nM
  TGI: 2890 nM
[44]
  GI50: 1880 nM
  TGI: 4080 nM
[12]
  GI50: 3480 nM
  TGI: 13100 nM
[13]
  GI50: 2280 nM
  TGI: 5970 nM
[15]
  GI50: 1860 nM
  TGI: 3600 nM
[45]
  GI50: 1720 nM
  TGI: 3290 nM
[46]
  GI50: 1300 nM
  TGI: 5580 nM
[47]
  GI50: 1700 nM
  TGI: 3420 nM
[48]
  GI50: 1490 nM
  TGI: 2860 nM
[49]
  GI50: 1550 nM
  TGI: 3010 nM
[50]
  GI50: 1750 nM
  TGI: 3330 nM
[16]
  GI50: 752 nM
  TGI: > 100000 nM
[51]
  GI50: 1570 nM
  TGI: 3330 nM
[52]
  GI50: 1470 nM
  TGI: 3100 nM
[53]
  GI50: 1820 nM
  TGI: 3590 nM
[54]
  GI50: 1760 nM
  TGI: 3320 nM
[17]
  GI50: 2120 nM
  TGI: 4780 nM
[55]
  GI50: 1780 nM
  TGI: 3800 nM
[56]
  GI50: 1360 nM
  TGI: 2690 nM
[57]
  GI50: 2870 nM
  TGI: 8760 nM
[18]
  GI50: 1450 nM
  TGI: 3500 nM
[58]
  GI50: 1730 nM
  TGI: 3540 nM
[19]
  GI50: 1560 nM
  TGI: 3260 nM
